Consider nine compounds from patent US12038447B2 (priority 2017, dated 2024).

The subject of data set [1] is human serum albumin (HSA) and lysozyme (LYZ). Description: Protein resistance of E0-6 rSAMs on MHA gold, IRAS amide I and ellipsometry. The format is binding. The conditions noted are these: HSA or LYZ 1 mg/mL, pH 8, rSAM on MHA gold.
A short description of data set [2]: pH titration of rinsed rSAM layers, ellipsometric thickness. It is filed as physicochemical. To be noted: on MBA SAMs.
A short description of data set [3]: Fluorescence recovery after photobleaching (FRAP), lateral fluidity. The format is physicochemical. To be noted: 1 mol % FAM tagged amidine in E2 on COOH quartz.
Another data set has as its system MC3T3-E1 cells. Nature of the data set: Cell attachment and detachment on GRGDS functionalized rSAMs. To be noted: for reduction in average projected cell area on MDSA versus MBA-SAMs: absence of GRGDS 3 in the layer; for average projected cell area: 5 hours.
Data set [4] is described as follows: Critical micelle concentration from assembly kinetics, in situ ellipsometry. To be noted: pH 9 buffer. The format is physicochemical.
A short description of data set [5]: Air and rinse stability of rSAMs, rinsing and drying cycles. To be noted: rSAM on MHA-gold. It is filed as physicochemical.
Data set [6] in a line: Water solubility (qualitative). The format is physicochemical.
In a further data set the target is HA. The conditions noted are these: cited from earlier work.
Data set [7] concerns Influenza A H5N1 (A/Anhui/2005) hemagglutinin (HA). The format is binding.
In data set [8] the test system is deactivated influenza virus H5N1. It is filed as binding, Influenza A Virus, A/Anhui/01/2005(H5N1).
The mark [9] stands for this setting: 100 μM added to cells on XGRGDS3,filler2=0.25 on MBA SAMs, 30 minutes.

Like-named read-outs stand apart in the source and are kept apart here.

As to `N=C(N)c1ccc(OCCCCCCCCCCOc2ccc(CCOCCOCCO)cc2)cc1` [E2, 4-[10-(4-{2-[2-(2-Hydroxy-ethoxy)-ethoxy]-ethyl}-phenoxy)-decyloxy]-benzamidine], the “reduction of protein adsorption based on amide I band intensity” value in data set [1] was “more than 50%”. The “pH resistance of rinsed layers” value in data set [2] is recorded as “up to 6”. Besides, the “diffusion coefficient from FRAP” value in [3] was “matching literature values of supported lipid bilayers”. For the same compound, the “reduction in average projected cell area on MDSA versus MBA-SAMs” value with MC3T3-E1 cells is on record as 28%.
For `N=C(N)c1ccc(OCCCCCCCCCCOc2ccc(CCOCCOCCOCCOCCO)cc2)cc1` [E4, 4-(10-{4-[2-(2-{2-[2-(2-Hydroxy-ethoxy)-ethoxy]-ethoxy}-ethoxy)-ethyl]-phenoxy}-decyloxy)-benzamidine], the “critical micelle concentration (CMC)” value in [4] is “approximately 5 μM”. For the same compound, the “protein adsorption / resistance” value in data set [1] is recorded as “less resistant”. Also, the “reduction in average projected cell area” value with MC3T3-E1 cells (100 μM added to cells on XGRGDS3,filler2=0.25 on MBA SAMs, 37° C., 30 minutes) stood at 65%. For the same compound, the “cell shape after addition” value with MC3T3-E1 cells (setting [9]) is given as “dramatic transition from a spread-out cell shape to a non-adhesive round shape”. Moreover, in the data set with MC3T3-E1 cells (XGRGDS3,filler2=0 on MDSA-SAMs), the “surface coverage by adherent cells normalized on average projected cell area” value is reported as 12% and the “average projected cell area” value was 1634 μm^2. In addition, the “reduction in average projected cell area on MDSA versus MBA-SAMs” value in the data set with MC3T3-E1 cells is listed as “no significant differences”. Moreover, in the data set with MC3T3-E1 cells (after 100 μM exposure, fresh medium, 37° C., 24 hrs), the “cells after replacing medium with fresh medium” value is “retain their adhesive characteristic”.
As to `N=C(N)c1ccc(OCCCCCCCCCCOc2ccc(CCOCCOCCOCCOCCOCCOCCO)cc2)cc1` [E6, 4-{10-[4-(2-{2-[2-(2-{2-[2-(2-Hydroxy-ethoxy)-ethoxy]-ethoxy}-ethoxy)-ethoxy]-ethoxy}-ethyl)-phenoxy]-decyloxy}-benzamidine], the “protein adsorption / resistance” value in data set [1] is “less resistant”. Further, the “decrease in layer thickness after 2 cycles of rinsing with pH 8 buffer and drying” value in [5] stood at 9 Å.
Take `C=C(C(=O)CNN[C@@H](CCCNC(=N)N)C(=O)NCC(=O)N[C@@H](CC(=O)O)C(=O)N[C@@H](CO)C(=O)O)c1cn(COCCOCCc2ccc(OCCCCCCCCCCOc3ccc(C(=N)N)cc3)cc2)nn1` [GRGDS 3, (2S,5S,11S)-16-(1-((2-(4-((10-(4-carbamimidoylphenoxy)decyl)oxy)phenethoxy)ethoxy)methyl)-1H-1,2,3-triazol-4-yl)-5-(carboxymethyl)-11-(3-guanidinopropyl)-2-(hydroxymethyl)-4,7,10,15-tetraoxo-3,6,9,12,13-pentaazaheptadec-16-enoic acid]: the “average projected cell area” value is recorded as 1183 μm^2 in the data set on MC3T3-E1 cells (XGRGDS3,filler2=0.1 on MDSA-SAMs) and 1282 μm^2 in the data set on MC3T3-E1 cells (XGRGDS3,filler2=0.25 on MDSA-SAMs). For the same compound, in the data set on MC3T3-E1 cells (XGRGDS3=0-0.25, 5 hours), the “coverage of adhered cells versus amount in layer” value was “correlated with the increasing amount of GRGDS3”. In addition, the “average projected cell area versus surface without GRGDS3” value is “an increase in average projected cell area” in the data set with MC3T3-E1 cells (with filler 1, XGRGDS3=0.25 on MBA SAMs); “a decrease in average projected cell area” in the data set on MC3T3-E1 cells (with filler 2, XGRGDS3=0.1 and 0.25 on MDSA SAMs). For the same compound, the “average projected cell area versus GRGDS density” value with MC3T3-E1 cells (with filler 1 on MDSA SAMs) and in the data set on MC3T3-E1 cells (with filler 2 on MBA SAMs) was “no distinct differences” in each case.
For `N=C(N)NCCC[C@H](N)C(=O)O` [L-Arginine, reference compound], in the data set on MC3T3-E1 cells (setting [9]), the “cell shape after addition” value was “most of the cells remained the spread-out shape”.
For `Cl.N=C(N)c1ccc(OCCCCCCCCCCOc2ccc(CCO)cc2)cc1` [compound 1, Amino(4-(10-(4-(2-hydroxyethyl)phenoxy)decyloxy)phenyl)methaniminium chloride], the figures for the “water solubility” value in data set [6] and in [6] (listed as E0) were “poorly water-soluble” and “poorly water soluble”, respectively. For the same compound, the “protein adsorption / resistance” value in data set [1] is on record as “most pronounced protein adsorption”.
On to `CC(=O)NC1C(O)CC(OCCc2cn(CCOCCOCCc3ccc(OCCCCCCCCCCOc4ccc(C(=N)N)cc4)cc3)nn2)(C(=O)O)OC1C(O)C(O)CO` (stereo not drawn) [compound 2, 5-Acetylamino-2-[2-(1-{2-[2-(2-{4-[10-(4-carbamimidoyl-phenoxy)-decyloxy]-phenyl}-ethoxy)-ethoxy]-ethyl}-1H-[1,2,3]triazol-4-yl)-ethoxy]-4-hydroxy-6-(1,2,3-trihydroxy-propyl)-tetrahydro-pyran-2-carboxylic acid], for which the “water solubility” value in data set [6] is “highly water soluble”.
Consider `CO[C@]1(C(=O)O)C[C@H](O)[C@@H](NC(C)=O)[C@H]([C@H](O)[C@H](O)CO)O1` [α-methyl sialoside], for which the Kd at HA (read-out: Kd per SA or HA monomer unit) was 2000 µM.
For mucin, the “effect of preincubating HA with mucin on HA binding to rSAM-2” value in [7] is on record as “effectively suppressed”. Besides, the “effect of mucin masking on virus adsorption to rSAM-2” value in data set [8] is recorded as “effectively suppressed”. Moreover, at HA (read-out: Ki of binding to HA), the Ki was 2 µM.

A word on the Kd: it is the free concentration of one partner at which half of the binding sites on the other are occupied at equilibrium, for simple one-to-one binding. Usually Ki stands for the equilibrium dissociation constant of an inhibitor or competing ligand from its target.
